We go through twelve compounds from patent US20160158317A1, “Antimicrobial Peptide Variants and Polynucleotides Encoding Same” (Adenium Biotech A/S, priority 2010, published 2016).

A short description of the data set: Determination of the protein binding (90% serum, 30 kDa filter, HPLC). It is filed as in vitro ADME. As to conditions: serum. The procedure:
Protein binding assays were performed as follows. The purified peptides were mixed with 90% serum and centrifuged through a 30 kDa filter. The ultra-filtrate and the non filtrated serum samples were quantified by HPLC measurements and the protein binding was subsequently calculated.

Structures are written as SMILES. Where a SMILES comes first, the peptide text is derived from it. Bridges are numbered along the chain shown (N, C = ends).

For `CC(C)[C@@H]1NC(=O)CNC(=O)[C@H](CC(N)=O)NC(=O)[C@H](CCCNC(=N)N)NC(=O)[C@H](Cc2ccc(O)cc2)NC(=O)[C@H](C(C)C)NC(=O)[C@@H]2CSSC[C@H](NC(=O)[C@H](C(C)C)NC(=O)[C@H](CCCNC(=N)N)NC1=O)C(=O)N[C@@H](Cc1c[nH]cn1)C(=O)N[C@@H](CCCNC(=N)N)C(=O)N[C@@H](CCCNC(=N)N)C(=O)N[C@H](C(=O)N[C@@H](CC(N)=O)C(=O)O)CSSC[C@H](NC(=O)[C@H](Cc1ccccc1)NC(=O)[C@@H](N)Cc1c[nH]cn1)C(=O)N[C@@H](Cc1c[nH]c3ccccc13)C(=O)N[C@@H](CC(N)=O)C(=O)N[C@@H](C(C)C)C(=O)N2` [compound 98] (H-HFCWNVCVYRNGVRVCHRRCN-OH; disulfide 3-20, 7-16 (inferred); N-terminus and C-terminus assumed), the fraction unbound is 0.23. The result for `CC(C)[C@@H]1NC(=O)[C@@H]2CSSC[C@H](NC(=O)[C@H](CCCCN)NC(=O)[C@H](CCCNC(=N)N)NC(=O)[C@H](C)NC(=O)CNC(=O)[C@H](CC(N)=O)NC(=O)[C@H](CCCNC(=N)N)NC(=O)[C@H](Cc3ccc(O)cc3)NC1=O)C(=O)N[C@@H](Cc1ccc(O)cc1)C(=O)N[C@@H](CCCNC(=N)N)C(=O)N[C@@H](CCCNC(=N)N)C(=O)N[C@H](C(=O)N[C@@H](CC(N)=O)C(=O)O)CSSC[C@H](NC(=O)[C@H](Cc1ccccc1)NC(=O)CN)C(=O)N[C@@H](Cc1c[nH]c3ccccc13)C(=O)N[C@@H](CCCNC(=N)N)C(=O)N[C@@H](C(C)C)C(=O)N2` [compound 313] (H-GFCWRVCVYRNGARKCYRRCN-OH; disulfide 3-20, 7-16 (inferred); N-terminus and C-terminus assumed) reads 0.02.

Regarding `CC(C)[C@@H]1NC(=O)CNC(=O)[C@H](CC(N)=O)NC(=O)[C@H](CCCNC(=N)N)NC(=O)[C@H](Cc2ccc(O)cc2)NC(=O)[C@H](C(C)C)NC(=O)[C@@H]2CSSC[C@H](NC(=O)[C@H](CO)NC(=O)[C@H](CCCNC(=N)N)NC1=O)C(=O)N[C@@H](Cc1ccc(O)cc1)C(=O)N[C@@H](CCCNC(=N)N)C(=O)N[C@@H](CCCNC(=N)N)C(=O)N[C@H](C(=O)N[C@@H](CC(N)=O)C(=O)O)CSSC[C@H](NC(=O)[C@H](Cc1ccccc1)NC(=O)CN)C(=O)N[C@@H](Cc1ccc(O)cc1)C(=O)N[C@@H](CCCCN)C(=O)N[C@@H](C(C)C)C(=O)N2` [compound 206] (H-GFCYKVCVYRNGVRSCYRRCN-OH; disulfide 3-20, 7-16 (inferred); N-terminus and C-terminus assumed), the fraction unbound was 0.14.

As for `CC(C)[C@@H]1NC(=O)CNC(=O)[C@H](CC(N)=O)NC(=O)[C@H](CCCNC(=N)N)NC(=O)[C@H](Cc2ccc(O)cc2)NC(=O)[C@H](C(C)C)NC(=O)[C@@H]2CSSC[C@H](NC(=O)[C@H](CO)NC(=O)[C@H](CCCNC(=N)N)NC1=O)C(=O)N[C@@H](Cc1ccc(O)cc1)C(=O)N[C@@H](CCCNC(=N)N)C(=O)N[C@@H](CCCNC(=N)N)C(=O)N[C@H](C(=O)N[C@@H](CC(N)=O)C(=O)O)CSSC[C@H](NC(=O)[C@H](Cc1ccccc1)NC(=O)CN)C(=O)N[C@@H](C)C(=O)N[C@@H](CCCNC(=N)N)C(=O)N[C@@H](C(C)C)C(=O)N2` [compound 122] (H-GFCARVCVYRNGVRSCYRRCN-OH; disulfide 3-20, 7-16), the free fraction (fraction unbound) is 0.19. The result for `CC(C)[C@@H]1NC(=O)CNC(=O)[C@H](CC(N)=O)NC(=O)[C@H](CCCNC(=N)N)NC(=O)[C@H](Cc2ccc(O)cc2)NC(=O)[C@H](C(C)C)NC(=O)[C@@H]2CSSC[C@H](NC(=O)[C@H](CO)NC(=O)[C@H](CCCNC(=N)N)NC1=O)C(=O)N[C@@H](Cc1ccc(O)cc1)C(=O)N[C@@H](CCCNC(=N)N)C(=O)N[C@@H](CCCNC(=N)N)C(=O)N[C@H](C(=O)N[C@@H](CC(N)=O)C(=O)O)CSSC[C@H](NC(=O)[C@H](Cc1ccccc1)NC(=O)CN)C(=O)N[C@@H](C)C(=O)N[C@@H](CCCCN)C(=O)N[C@@H](C(C)C)C(=O)N2` [compound 120] (H-GFCAKVCVYRNGVRSCYRRCN-OH; disulfide 3-20, 7-16 (inferred); N-terminus and C-terminus assumed) reads 0.31. The value for `CC(C)[C@@H]1NC(=O)[C@@H]2CSSC[C@H](NC(=O)[C@H](C)NC(=O)[C@H](CCCNC(=N)N)NC(=O)[C@H](CCCCN)NC(=O)CNC(=O)[C@H](CC(N)=O)NC(=O)[C@H](CCCNC(=N)N)NC(=O)[C@H](Cc3ccc(O)cc3)NC1=O)C(=O)N[C@@H](Cc1ccc(O)cc1)C(=O)N[C@@H](CCCNC(=N)N)C(=O)N[C@@H](CCCNC(=N)N)C(=O)N[C@H](C(=O)N[C@@H](CC(N)=O)C(=O)O)CSSC[C@H](NC(=O)[C@H](Cc1ccccc1)NC(=O)CN)C(=O)N[C@@H](Cc1c[nH]c3ccccc13)C(=O)N[C@@H](Cc1ccc(O)cc1)C(=O)N[C@@H](C)C(=O)N2` [compound 340] (H-GFCWYACVYRNGKRACYRRCN-OH; disulfide 3-20, 7-16 (inferred); N-terminus and C-terminus assumed) was 0.02; that for `CC(C)[C@@H]1NC(=O)CNC(=O)[C@H](CC(N)=O)NC(=O)[C@H](CCCNC(=N)N)NC(=O)[C@H](Cc2ccc(O)cc2)NC(=O)[C@H](C(C)C)NC(=O)[C@@H]2CSSC[C@H](NC(=O)[C@H](CCCCN)NC(=O)[C@H](CCCNC(=N)N)NC1=O)C(=O)N[C@@H](Cc1c[nH]cn1)C(=O)N[C@@H](CCCNC(=N)N)C(=O)N[C@@H](CCCNC(=N)N)C(=O)N[C@H](C(=O)N[C@@H](CC(N)=O)C(=O)O)CSSC[C@H](NC(=O)[C@H](Cc1ccccc1)NC(=O)CN)C(=O)N[C@@H](Cc1c[nH]c3ccccc13)C(=O)N[C@@H](CCCNC(=N)N)C(=O)N[C@@H](C(C)C)C(=O)N2` [compound 315] (H-GFCWRVCVYRNGVRKCHRRCN-OH; disulfide 3-20, 7-16 (inferred); N-terminus and C-terminus assumed) was 0.07; that for `CC(C)[C@@H]1NC(=O)CNC(=O)[C@H](CC(N)=O)NC(=O)[C@H](CCCNC(=N)N)NC(=O)[C@H](Cc2ccc(O)cc2)NC(=O)[C@H](C(C)C)NC(=O)[C@@H]2CSSC[C@H](NC(=O)[C@H](CCC(N)=O)NC(=O)[C@H](CCCNC(=N)N)NC1=O)C(=O)N[C@@H](Cc1ccc(O)cc1)C(=O)N[C@@H](CCCNC(=N)N)C(=O)N[C@@H](CCCNC(=N)N)C(=O)N[C@H](C(=O)N[C@@H](CC(N)=O)C(=O)O)CSSC[C@H](NC(=O)[C@H](Cc1ccccc1)NC(=O)CN)C(=O)N[C@@H](Cc1c[nH]c3ccccc13)C(=O)N[C@@H](Cc1ccc(O)cc1)C(=O)N[C@@H](C(C)C)C(=O)N2` [compound 42] (H-GFCWYVCVYRNGVRQCYRRCN-OH; disulfide 3-20, 7-16 (inferred); N-terminus and C-terminus assumed) was 0.04. `CC(C)[C@@H]1NC(=O)CNC(=O)[C@H](CC(N)=O)NC(=O)[C@H](CCCNC(=N)N)NC(=O)[C@H](CCCCN)NC(=O)[C@H](C(C)C)NC(=O)[C@@H]2CSSC[C@H](NC(=O)[C@H](C(C)C)NC(=O)[C@H](CCCNC(=N)N)NC1=O)C(=O)N[C@@H](Cc1c[nH]cn1)C(=O)N[C@@H](CCCNC(=N)N)C(=O)N[C@@H](CCCNC(=N)N)C(=O)N[C@H](C(=O)N[C@@H](CC(N)=O)C(=O)O)CSSC[C@H](NC(=O)[C@H](Cc1ccccc1)NC(=O)CN)C(=O)N[C@@H](Cc1ccccc1)C(=O)N[C@@H](Cc1ccc(O)cc1)C(=O)N[C@@H](C(C)C)C(=O)N2` [compound 137] (H-GFCFYVCVKRNGVRVCHRRCN-OH; disulfide 3-20, 7-16 (inferred); N-terminus and C-terminus assumed) showed a fraction unbound of 0.14.

For `CC(C)[C@@H]1NC(=O)CNC(=O)[C@H](C)NC(=O)[C@H](CCCNC(=N)N)NC(=O)[C@H](Cc2ccc(O)cc2)NC(=O)[C@H](C(C)C)NC(=O)[C@@H]2CSSC[C@H](NC(=O)[C@H](C(C)C)NC(=O)[C@H](CCCNC(=N)N)NC1=O)C(=O)N[C@@H](Cc1c[nH]cn1)C(=O)N[C@@H](CCCNC(=N)N)C(=O)N[C@@H](CCCNC(=N)N)C(=O)N[C@H](C(=O)N[C@@H](CC(N)=O)C(=O)O)CSSC[C@H](NC(=O)[C@H](Cc1ccccc1)NC(=O)CN)C(=O)N[C@@H](Cc1c[nH]c3ccccc13)C(=O)N[C@@H](CC(N)=O)C(=O)N[C@@H](C(C)C)C(=O)N2` [compound 230] (H-GFCWNVCVYRAGVRVCHRRCN-OH; disulfide 3-20, 7-16 (inferred); N-terminus and C-terminus assumed), the fraction unbound is 0.29. In turn, `CSCC[C@H](N)C(=O)N[C@@H](Cc1ccccc1)C(=O)N[C@H]1CSSC[C@@H](C(=O)N[C@@H](CC(N)=O)C(=O)O)NC(=O)[C@H](CCCNC(=N)N)NC(=O)[C@H](CCCNC(=N)N)NC(=O)[C@H](Cc2c[nH]cn2)NC(=O)[C@@H]2CSSC[C@H](NC(=O)[C@H](C(C)C)NC(=O)[C@H](CC(N)=O)NC(=O)[C@H](Cc3c[nH]c4ccccc34)NC1=O)C(=O)N[C@@H](C(C)C)C(=O)N[C@@H](Cc1ccc(O)cc1)C(=O)N[C@@H](CCCNC(=N)N)C(=O)N[C@@H](CC(N)=O)C(=O)NCC(=O)N[C@@H](C(C)C)C(=O)N[C@@H](CCCNC(=N)N)C(=O)N[C@@H](C(C)C)C(=O)N2` [compound 101] (H-MFCWNVCVYRNGVRVCHRRCN-OH; disulfide 3-20, 7-16 (inferred); N-terminus and C-terminus assumed) showed a fraction unbound of 0.19. The value for `CC(C)[C@@H]1NC(=O)CNC(=O)[C@H](CC(N)=O)NC(=O)[C@H](CCCNC(=N)N)NC(=O)[C@H](Cc2ccc(O)cc2)NC(=O)[C@H](Cc2ccccc2)NC(=O)[C@@H]2CSSC[C@H](NC(=O)[C@H](C(C)C)NC(=O)[C@H](CCCNC(=N)N)NC1=O)C(=O)N[C@@H](Cc1c[nH]cn1)C(=O)N[C@@H](CCCNC(=N)N)C(=O)N[C@@H](CCCNC(=N)N)C(=O)N[C@H](C(=O)N[C@@H](CC(N)=O)C(=O)O)CSSC[C@H](NC(=O)[C@H](Cc1ccccc1)NC(=O)CN)C(=O)N[C@@H](Cc1c[nH]c3ccccc13)C(=O)N[C@@H](CC(N)=O)C(=O)N[C@@H](C(C)C)C(=O)N2` [compound 272] (H-GFCWNVCFYRNGVRVCHRRCN-OH; disulfide 3-20, 7-16) was 0.26.

The term fraction unbound denotes free concentration divided by total concentration.
